According to PubChem BioAssay (NCI):
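Assay format: 96-well plates, 48-hour exposure. TGI denotes the concentration required for complete inhibition of growth.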

Tests used:
Assay in all cases: DTP human tumour cell line panel, 48 h
SW-620 colon = tested on: SW-620 colon
RXF 393 renal = tested on: RXF 393 renal
TK-10 renal = tested on: TK-10 renal
U251 CNS = tested on: U251 CNS
SF-295 CNS = tested on: SF-295 CNS
XF 498 CNS = tested on: XF 498 CNS
UO-31 renal = tested on: UO-31 renal
SNB-75 CNS = tested on: SNB-75 CNS
K-562 leukemia = tested on: K-562 leukemia
SK-OV-3 ovarian = tested on: SK-OV-3 ovarian
HL-60(TB) leukemia = tested on: HL-60(TB) leukemia
DMS 114 small cell lung = tested on: DMS 114 small cell lung
SF-268 CNS = tested on: SF-268 CNS
LOX IMVI melanoma = tested on: LOX IMVI melanoma
KM20L2 colon = tested on: KM20L2 colon
CCRF-CEM leukemia = tested on: CCRF-CEM leukemia
A549 NSCLC = tested on: A549 NSCLC
KM12 colon = tested on: KM12 colon
UACC-62 melanoma = tested on: UACC-62 melanoma
NCI-H23 lung = tested on: NCI-H23 lung
HCT-15 colon = tested on: HCT-15 colon
IGROV1 ovarian = tested on: IGROV1 ovarian
MOLT-4 leukemia = tested on: MOLT-4 leukemia
MALME-3M melanoma = tested on: MALME-3M melanoma
LXFL 529 NSCLC = tested on: LXFL 529 NSCLC
ACHN renal = tested on: ACHN renal
DLD-1 colon = tested on: DLD-1 colon
DMS 273 small cell lung = tested on: DMS 273 small cell lung
HCC-2998 colon = tested on: HCC-2998 colon
SK-MEL-2 melanoma = tested on: SK-MEL-2 melanoma
SK-MEL-5 melanoma = tested on: SK-MEL-5 melanoma
M14 melanoma = tested on: M14 melanoma
NCI-H522 lung = tested on: NCI-H522 lung
A498 renal = tested on: A498 renal
CAKI-1 renal = tested on: CAKI-1 renal
NCI-H460 lung = tested on: NCI-H460 lung
OVCAR-8 ovarian = tested on: OVCAR-8 ovarian
HT29 colon = tested on: HT29 colon
EKVX NSCLC = tested on: EKVX NSCLC
786-0 renal = tested on: 786-0 renal
RXF-631 renal = tested on: RXF-631 renal
SN12C renal = tested on: SN12C renal
SNB-19 CNS = tested on: SNB-19 CNS
COLO 205 colon = tested on: COLO 205 colon
SK-MEL-28 melanoma = tested on: SK-MEL-28 melanoma
RPMI-8226 leukemia = tested on: RPMI-8226 leukemia
SF-539 CNS = tested on: SF-539 CNS
OVCAR-5 ovarian = tested on: OVCAR-5 ovarian
SNB-78 CNS = tested on: SNB-78 CNS
UACC-257 melanoma = tested on: UACC-257 melanoma
OVCAR-4 ovarian = tested on: OVCAR-4 ovarian
M19-MEL melanoma = tested on: M19-MEL melanoma
OVCAR-3 ovarian = tested on: OVCAR-3 ovarian
NCI-H226 lung = tested on: NCI-H226 lung
HOP-92 NSCLC = tested on: HOP-92 NSCLC
HOP-62 NSCLC = tested on: HOP-62 NSCLC
HCT-116 colon = tested on: HCT-116 colon
SR leukemia = tested on: SR leukemia

## Cn1c2c([N+](=O)[O-])cccc2c(=O)c2c(O)cc3c(c21)C=CC(C)(C)O3
SW-620 colon
  TGI: > 100 µM
RXF 393 renal
  TGI: 62.1 µM
TK-10 renal
  TGI: > 100 µM
U251 CNS
  TGI: > 100 µM
SF-295 CNS
  TGI: 99.5 µM
XF 498 CNS
  TGI: 45.2 µM
UO-31 renal
  TGI: > 100 µM
SNB-75 CNS
  TGI: 84.5 µM
K-562 leukemia
  TGI: > 100 µM
SK-OV-3 ovarian
  TGI: > 100 µM
HL-60(TB) leukemia
  TGI: > 100 µM
DMS 114 small cell lung
  TGI: > 100 µM
SF-268 CNS
  TGI: > 100 µM
LOX IMVI melanoma
  TGI: > 100 µM
KM20L2 colon
  TGI: > 100 µM
CCRF-CEM leukemia
  TGI: > 100 µM
A549 NSCLC
  TGI: > 100 µM
KM12 colon
  TGI: > 100 µM
UACC-62 melanoma
  TGI: > 100 µM
NCI-H23 lung
  TGI: > 100 µM
HCT-15 colon
  TGI: > 100 µM
IGROV1 ovarian
  TGI: > 100 µM
MOLT-4 leukemia
  TGI: > 100 µM
MALME-3M melanoma
  TGI: > 100 µM
LXFL 529 NSCLC
  TGI: > 100 µM
ACHN renal
  TGI: > 100 µM
DLD-1 colon
  TGI: > 100 µM
DMS 273 small cell lung
  TGI: > 100 µM
HCC-2998 colon
  TGI: > 100 µM
SK-MEL-2 melanoma
  TGI: > 100 µM
SK-MEL-5 melanoma
  TGI: > 100 µM
M14 melanoma
  TGI: > 100 µM
NCI-H522 lung
  TGI: 27.8 µM
A498 renal
  TGI: > 100 µM
CAKI-1 renal
  TGI: > 100 µM
NCI-H460 lung
  TGI: > 100 µM
OVCAR-8 ovarian
  TGI: > 100 µM
HT29 colon
  TGI: > 100 µM
EKVX NSCLC
  TGI: > 100 µM
786-0 renal
  TGI: > 100 µM
RXF-631 renal
  TGI: > 100 µM
SN12C renal
  TGI: > 100 µM
SNB-19 CNS
  TGI: > 100 µM
COLO 205 colon
  TGI: > 100 µM
SK-MEL-28 melanoma
  TGI: > 100 µM
RPMI-8226 leukemia
  TGI: > 100 µM
SF-539 CNS
  TGI: 76.2 µM
OVCAR-5 ovarian
  TGI: > 100 µM
SNB-78 CNS
  TGI: > 100 µM
UACC-257 melanoma
  TGI: > 100 µM
OVCAR-4 ovarian
  TGI: 81 µM

## COc1ccc([C@@H]2C[C@@H]3C(=O)OC(=O)[C@@H]3c3c2c2ccccc2n3C)cc1
M19-MEL melanoma
  TGI: > 100 µM
SW-620 colon
  TGI: > 100 µM
OVCAR-3 ovarian
  TGI: > 100 µM
TK-10 renal
  TGI: > 100 µM
NCI-H226 lung
  TGI: > 100 µM
HOP-92 NSCLC
  TGI: > 100 µM
SF-295 CNS
  TGI: > 100 µM
XF 498 CNS
  TGI: > 100 µM
UO-31 renal
  TGI: > 100 µM
SNB-75 CNS
  TGI: > 100 µM
K-562 leukemia
  TGI: > 100 µM
SK-OV-3 ovarian
  TGI: > 100 µM
HL-60(TB) leukemia
  TGI: > 100 µM
DMS 114 small cell lung
  TGI: > 100 µM
SF-268 CNS
  TGI: > 100 µM
CCRF-CEM leukemia
  TGI: > 100 µM
A549 NSCLC
  TGI: > 100 µM
KM12 colon
  TGI: > 100 µM
UACC-62 melanoma
  TGI: > 100 µM
NCI-H23 lung
  TGI: > 100 µM
IGROV1 ovarian
  TGI: > 100 µM
MOLT-4 leukemia
  TGI: > 100 µM
MALME-3M melanoma
  TGI: > 100 µM
LXFL 529 NSCLC
  TGI: > 100 µM
DLD-1 colon
  TGI: > 100 µM
DMS 273 small cell lung
  TGI: > 100 µM
HCC-2998 colon
  TGI: > 100 µM
SK-MEL-2 melanoma
  TGI: > 100 µM
M14 melanoma
  TGI: > 100 µM
NCI-H522 lung
  TGI: > 100 µM
HOP-62 NSCLC
  TGI: > 100 µM
A498 renal
  TGI: > 100 µM
CAKI-1 renal
  TGI: > 100 µM
OVCAR-8 ovarian
  TGI: > 100 µM
HT29 colon
  TGI: > 100 µM
EKVX NSCLC
  TGI: > 100 µM
786-0 renal
  TGI: > 100 µM
RXF-631 renal
  TGI: > 100 µM
SN12C renal
  TGI: > 100 µM
HCT-116 colon
  TGI: > 100 µM
SNB-19 CNS
  TGI: > 100 µM
COLO 205 colon
  TGI: > 100 µM
SK-MEL-28 melanoma
  TGI: > 100 µM
SR leukemia
  TGI: > 100 µM
RPMI-8226 leukemia
  TGI: > 100 µM
SF-539 CNS
  TGI: > 100 µM
UACC-257 melanoma
  TGI: > 100 µM
OVCAR-4 ovarian
  TGI: > 100 µM
